The results in this text go back to article PMC6204753, “Non-native autoinducer analogs capable of modulating the SdiA quorum sensing receptor in Salmonella enterica serovar Typhimurium” (Beilstein Journal of Organic Chemistry, 2018).

The structures appear in SMILES notation.

In the assay the target is SdiA (Salmonella enterica subsp. enterica serovar Typhimurium, UniProt O66040). As to the kind of experiment: S. Typhimurium-pJNS25 SdiA reporter, competitive antagonism against 10 nM L-OOHL. The format is cell-based. Conditions: average ± STD, change in activity from 10 nM 2 (OOHL); for Antagonism 1 μM Inhibition (%): 1 μM compound; for Antagonism 100 μM Inhibition (%): 100 μM compound. The source says: Biological assays for SdiA activity. Cell-based reporter strains that rely on detecting the transcriptional activity of LuxR-type receptors are commonly used to assess the activity of exogenous ligands. We used the S. Typhimurium-pJNS25 reporter strain constructed by Smith and Ahmer and also used by Janssens et al. to examine SdiA activity. This strain naturally produces SdiA and contains a reporter plasmid with the promoter region for srgE fused to the luxABCDE operon of V. fischeri (see Experimental section for details of all strains and plasmids). SdiA activity is thus reported by the production of luciferase and resulting bioluminescence. We also prepared an SdiA reporter in E. coli (JLD271-pJN105SE-pSC11SE) to examine S. Typhimurium SdiA activity in an alternate background and with a different reporter gene output. […] This reporter construct uses an arabinose inducible promoter to produce S. Typhimurium SdiA and the promoter region for srgE fused to lacZ to report SdiA activity. SdiA activity is then measured using standard β-galactosidase assays. In both reporter strains, signal was normalized to the difference between the positive control (10 μM OOHL) and the negative control (1% DMSO; no compound).
Chain of SdiA (O66040 entry or part of it): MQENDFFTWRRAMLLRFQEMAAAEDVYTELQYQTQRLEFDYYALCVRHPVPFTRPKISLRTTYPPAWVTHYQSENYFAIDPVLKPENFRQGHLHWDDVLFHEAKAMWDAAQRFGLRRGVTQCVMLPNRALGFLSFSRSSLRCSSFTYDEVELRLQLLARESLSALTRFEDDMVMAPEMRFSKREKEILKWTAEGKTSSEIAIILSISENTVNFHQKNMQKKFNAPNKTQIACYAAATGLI
Salmonella SdiA reporter assay. S. Typhimurium-pJNS25 was grown 16–18 h overnight in LB, diluted 1:100 in fresh LB medium, and then incubated for 6 h at 37 °C with shaking at 200 rpm in the presence of compounds (1% DMSO). […] All compounds were screened at 100 μM and 1 μM in triplicate in agonism and antagonism assays. […] Dose–response analyses were performed by preparing dilutions of compounds in DMSO and testing each concentration in the agonism or antagonism assays. Competition dose–response assays (data in Figure 5) were performed in the same manner as the antagonism assays, except instead of OOHL being added to the subculture, the antagonist being tested was added. Non-linear regression curve fits were generated using GraphPad Prism software (version 6) using variable slope (four parameter) dose–response analysis.

On to `O=C(NCc1cc(Br)cc(Br)c1OC(=O)c1ccccc1[N+](=O)[O-])c1ccccc1Cl` [19P, reference compound], for which the “Antagonism 1 μM Inhibition (%)” value is given as 39 ± 16% and the “Antagonism 100 μM Inhibition (%)” value is given as 25 ± 16%.

With `CCCCCCCCCC(=O)N[C@H]1CCOC1=O` [A4], the “Antagonism 1 μM Inhibition (%)” value is given as 12 ± 19% and the “Antagonism 100 μM Inhibition (%)” value is listed as 18 ± 7%.

Consider `CCCCCS(=O)(=O)N[C@H]1CCOC1=O` [A9], for which the “Antagonism 1 μM Inhibition (%)” value is listed as 10 ± 9% and the “Antagonism 100 μM Inhibition (%)” value stood at 13 ± 2%.

In the case of `O=C(CCCc1ccccc1)NC1CCOC1=O` (stereo not drawn) [B3], the “Antagonism 1 μM Inhibition (%)” value amounted to 34 ± 5% and the “Antagonism 100 μM Inhibition (%)” value was found to be 16 ± 3%.

Consider `O=C(CCCc1c[nH]c2ccccc12)N[C@@H]1CCOC1=O` [B5], for which the “Antagonism 1 μM Inhibition (%)” value came to 30 ± 15% and the “Antagonism 100 μM Inhibition (%)” value was -8 ± 5%.

On to `O=C(N[C@H]1CCOC1=O)c1ccc(Br)cc1` [B6], for which the “Antagonism 1 μM Inhibition (%)” value was found to be 25 ± 11% and the “Antagonism 100 μM Inhibition (%)” value was -14 ± 17%.

For `O=C(N[C@H]1CCOC1=O)c1ccccc1` [B8], the “Antagonism 1 μM Inhibition (%)” value was 26 ± 3% and the “Antagonism 100 μM Inhibition (%)” value is recorded as -13 ± 11%.

For the compound `O=C(CCc1ccccc1)N[C@H]1CCOC1=O` [B9], the “Antagonism 1 μM Inhibition (%)” value was 13 ± 10% and the “Antagonism 100 μM Inhibition (%)” value is given as 18 ± 14%.

Take `O=C(C=Cc1ccccc1)NC1CCOC1=O` (stereo not drawn) [B10]: the “Antagonism 1 μM Inhibition (%)” value stood at 16 ± 5% and the “Antagonism 100 μM Inhibition (%)” value is on record as -56 ± 11%.

As for `O=C(Cc1c[nH]c2ccccc12)N[C@H]1CCOC1=O` [B13], the “Antagonism 1 μM Inhibition (%)” value stood at 8 ± 10% and the “Antagonism 100 μM Inhibition (%)” value is listed as 13 ± 13%.

As to `O=C(CCc1c[nH]c2ccccc12)N[C@H]1CCOC1=O` [B14], the “Antagonism 1 μM Inhibition (%)” value came out at 10 ± 2% and the “Antagonism 100 μM Inhibition (%)” value is given as 18 ± 5%.

`O=C(Cc1ccccc1)N[C@H]1CCOC1=O` [C1]: the “Antagonism 1 μM Inhibition (%)” value turned out to be 9 ± 12% and the “Antagonism 100 μM Inhibition (%)” value is given as -6 ± 5%.

As for `O=C(Cc1ccc(F)cc1)N[C@H]1CCOC1=O` [C2], the “Antagonism 1 μM Inhibition (%)” value amounted to 2 ± 8% and the “Antagonism 100 μM Inhibition (%)” value is given as -8 ± 18%.

Take `O=C(Cc1cccc(F)c1)N[C@H]1CCOC1=O` [C3]: the “Antagonism 1 μM Inhibition (%)” value is recorded as -1 ± 15% and the “Antagonism 100 μM Inhibition (%)” value was -18 ± 12%.

`O=C(Cc1ccccc1F)N[C@H]1CCOC1=O` [C4]: the “Antagonism 1 μM Inhibition (%)” value is on record as 3 ± 6% and the “Antagonism 100 μM Inhibition (%)” value is on record as -31 ± 10%.

For `O=C(Cc1ccc(Cl)cc1)N[C@H]1CCOC1=O` [C5], the “Antagonism 1 μM Inhibition (%)” value is 13 ± 6% and the “Antagonism 100 μM Inhibition (%)” value turned out to be 18 ± 7%.

Regarding `O=C(Cc1ccccc1Cl)N[C@H]1CCOC1=O` [C7], the “Antagonism 1 μM Inhibition (%)” value was determined as 22 ± 6% and the “Antagonism 100 μM Inhibition (%)” value is -32 ± 5%.

With `O=C(Cc1ccccc1I)N[C@H]1CCOC1=O` [C12], the “Antagonism 1 μM Inhibition (%)” value amounted to 9 ± 13% and the “Antagonism 100 μM Inhibition (%)” value was -24 ± 12%.

With `O=C(Cc1ccc([N+](=O)[O-])cc1)N[C@H]1CCOC1=O` [C13], the “Antagonism 1 μM Inhibition (%)” value was 24 ± 4% and the “Antagonism 100 μM Inhibition (%)” value was 14 ± 9%.

As to `O=C(Cc1ccccc1[N+](=O)[O-])N[C@H]1CCOC1=O` [C15], the “Antagonism 1 μM Inhibition (%)” value worked out at 5 ± 2% and the “Antagonism 100 μM Inhibition (%)” value was -17 ± 18%.

`O=C(Cc1c(F)c(F)c(F)c(F)c1F)N[C@H]1CCOC1=O` [C16]: the “Antagonism 1 μM Inhibition (%)” value is recorded as 5 ± 3% and the “Antagonism 100 μM Inhibition (%)” value is -32 ± 18%.

Turning to `[N-]=[N+]=Nc1ccc(CC(=O)N[C@H]2CCOC2=O)cc1` [C17], the “Antagonism 1 μM Inhibition (%)” value was 13 ± 11% and the “Antagonism 100 μM Inhibition (%)” value is reported as 9 ± 6%.

On to `O=C(Cc1ccc(C(F)(F)F)cc1)N[C@H]1CCOC1=O` [C20], for which the “Antagonism 1 μM Inhibition (%)” value was 15 ± 10% and the “Antagonism 100 μM Inhibition (%)” value is given as 8 ± 6%.

For the compound `Nc1ccc(CC(=O)N[C@H]2CCOC2=O)cc1` [C21], the “Antagonism 1 μM Inhibition (%)” value was determined as 4 ± 12% and the “Antagonism 100 μM Inhibition (%)” value stood at 13 ± 4%.

On to `CC(C)(C)OC(=O)Nc1ccc(CC(=O)N[C@H]2CCOC2=O)cc1` [C22], for which the “Antagonism 1 μM Inhibition (%)” value is -9 ± 2% and the “Antagonism 100 μM Inhibition (%)” value is listed as 6 ± 6%.

As for `O=C(Cc1ccc(O)cc1)N[C@H]1CCOC1=O` [C23], the “Antagonism 1 μM Inhibition (%)” value is recorded as 6 ± 2% and the “Antagonism 100 μM Inhibition (%)” value is on record as 16 ± 3%.

Turning to `CCOc1ccc(CC(=O)N[C@H]2CCOC2=O)cc1` [C25], the “Antagonism 1 μM Inhibition (%)” value came to 12 ± 8% and the “Antagonism 100 μM Inhibition (%)” value was 7 ± 5%.

Consider `O=C(CCc1cccs1)N[C@H]1CCOC1=O` [D3], for which the “Antagonism 1 μM Inhibition (%)” value worked out at 10 ± 2% and the “Antagonism 100 μM Inhibition (%)” value is 6 ± 9%.

Take `Cc1nc(-c2ccccc2)oc1CC(=O)N[C@H]1CCOC1=O` [D4]: the “Antagonism 1 μM Inhibition (%)” value is reported as 28 ± 13% and the “Antagonism 100 μM Inhibition (%)” value is reported as -6 ± 4%.

On to `Cc1ccc(C(=O)CCC(=O)N[C@H]2CCOC2=O)cc1` [D6], for which the “Antagonism 1 μM Inhibition (%)” value is 21 ± 19% and the “Antagonism 100 μM Inhibition (%)” value is listed as 3 ± 12%.

As to `O=C(N[C@H]1CCOC1=O)c1cnn(-c2ccccc2)c1C(F)(F)F` [D9], the “Antagonism 1 μM Inhibition (%)” value is listed as 26 ± 6% and the “Antagonism 100 μM Inhibition (%)” value was 9 ± 1%.

On to `O=C(N[C@H]1CCOC1=O)c1ccc(-c2csnn2)cc1` [D10], for which the “Antagonism 1 μM Inhibition (%)” value is 23 ± 6% and the “Antagonism 100 μM Inhibition (%)” value came to 14 ± 12%.

`CCCCCCCCc1ccc(C(=O)N[C@H]2CCOC2=O)cc1` [D13]: the “Antagonism 1 μM Inhibition (%)” value is 17 ± 7% and the “Antagonism 100 μM Inhibition (%)” value amounted to 23 ± 7%.

As for `COc1cc(C(C)=O)ccc1OCC(=O)N[C@H]1CCOC1=O` [D16], the “Antagonism 1 μM Inhibition (%)” value is 19 ± 6% and the “Antagonism 100 μM Inhibition (%)” value worked out at 3 ± 6%.

For the compound `COc1ccccc1C1CCN(c2ccc(/C=C/C(=O)N[C@H]3CCOC3=O)cc2[N+](=O)[O-])CC1` [D18], the “Antagonism 1 μM Inhibition (%)” value was determined as 18 ± 8% and the “Antagonism 100 μM Inhibition (%)” value is recorded as 32 ± 5%.

Turning to `COc1cccc(CC(=O)N[C@H]2CCOC2=O)c1` [E2], the “Antagonism 1 μM Inhibition (%)” value was -5 ± 1% and the “Antagonism 100 μM Inhibition (%)” value was -8 ± 14%.

Turning to `O=C(Cc1cccc(C(F)(F)F)c1)N[C@H]1CCOC1=O` [E3], the “Antagonism 1 μM Inhibition (%)” value was -14 ± 16% and the “Antagonism 100 μM Inhibition (%)” value was found to be 5 ± 8%.

With `N#Cc1ccc(CC(=O)N[C@H]2CCOC2=O)cc1` [E4], the “Antagonism 1 μM Inhibition (%)” value is given as 12 ± 6% and the “Antagonism 100 μM Inhibition (%)” value is -17 ± 18%.

As to `O=C(Cc1ccc(SC(F)(F)F)cc1)N[C@H]1CCOC1=O` [E8], the “Antagonism 1 μM Inhibition (%)” value is 34 ± 11% and the “Antagonism 100 μM Inhibition (%)” value is given as 31 ± 7%.

Consider `O=C(Cc1cc(C(F)(F)F)cc(C(F)(F)F)c1)N[C@H]1CCOC1=O` [E9], for which the “Antagonism 1 μM Inhibition (%)” value came to 18 ± 8% and the “Antagonism 100 μM Inhibition (%)” value is 21 ± 8%.

As to `O=C(Cc1ccc2ccccc2c1)N[C@H]1CCOC1=O` [E12], the “Antagonism 1 μM Inhibition (%)” value is -13 ± 9% and the “Antagonism 100 μM Inhibition (%)” value is 0 ± 15%.

As for `O=C(COc1cccc([N+](=O)[O-])c1)N[C@H]1CCOC1=O` [E25], the “Antagonism 1 μM Inhibition (%)” value came to 5 ± 18% and the “Antagonism 100 μM Inhibition (%)” value came to 9 ± 12%.

As to `COc1ccc(CCC(=O)N[C@H]2CCOC2=O)cc1` [E28], the “Antagonism 1 μM Inhibition (%)” value was found to be 11 ± 18% and the “Antagonism 100 μM Inhibition (%)” value is reported as 6 ± 15%.

In the case of `O=C(CCc1cccc(Br)c1)N[C@H]1CCOC1=O` [E31], the “Antagonism 1 μM Inhibition (%)” value amounted to 13 ± 10% and the “Antagonism 100 μM Inhibition (%)” value is on record as 6 ± 6%.

For `O=C(CCc1ccc(I)cc1)N[C@H]1CCOC1=O` [E32], the “Antagonism 1 μM Inhibition (%)” value was found to be 19 ± 14% and the “Antagonism 100 μM Inhibition (%)” value is on record as 24 ± 13%.

On to `O=C(CCc1ccc([N+](=O)[O-])cc1)N[C@H]1CCOC1=O` [E37], for which the “Antagonism 1 μM Inhibition (%)” value is on record as 34 ± 5% and the “Antagonism 100 μM Inhibition (%)” value stood at 23 ± 5%.

Turning to `O=C(CCc1cccc([N+](=O)[O-])c1)N[C@H]1CCOC1=O` [E38], the “Antagonism 1 μM Inhibition (%)” value came to 15 ± 11% and the “Antagonism 100 μM Inhibition (%)” value turned out to be 32 ± 6%.

Regarding `O=C(CCc1ccc2c(c1)OCO2)N[C@H]1CCOC1=O` [E39], the “Antagonism 1 μM Inhibition (%)” value came out at 10 ± 15% and the “Antagonism 100 μM Inhibition (%)” value is given as 12 ± 3%.

Take `CCCCCCCCCCCC(=O)N[C@H]1CCSC1=O` [F4]: the “Antagonism 1 μM Inhibition (%)” value was -2 ± 11% and the “Antagonism 100 μM Inhibition (%)” value is given as 2 ± 5%.

Consider `CCCCCCC(=O)N[C@H]1CCSC1=O` [F6], for which the “Antagonism 1 μM Inhibition (%)” value is given as 5 ± 5% and the “Antagonism 100 μM Inhibition (%)” value is -2 ± 7%.

`CCCCCC(=O)N[C@H]1CCSC1=O` [F7]: the “Antagonism 1 μM Inhibition (%)” value is given as 7 ± 9% and the “Antagonism 100 μM Inhibition (%)” value is -12 ± 4%.
